Measurements published in PubChem BioAssay AID2305 (GlaxoSmithKline (GSK), 2010).

What follows are compounds tested on P. falciparum 3D7 growth, pLDH absorbance (assay: P. falciparum 3D7 growth inhibition, dose response, strain 3D7 (AID 2305)).

Structure (SMILES) | IC50 [nM]
CN1CCN(Cc2ccc(-c3ccc4ncnc(Nc5ccc(OCc6ccccc6)cc5)c4c3)o2)CC1 | 690
COc1ccc(Cl)cc1C(=O)Nc1ccc(-c2nc3ccccc3[nH]2)cc1 | 770
CC(CNC1CCN(CCn2c(=O)ccc3ccc(F)cc32)CC1)c1ccccc1 (configuration not stated) | 1270
CC(O)c1cccc(-c2ccc(Nc3ccnc4cc(-c5nccs5)ccc34)cc2)c1 (configuration not stated) | 1010
COc1ccc(C2SCC(=O)N2CCc2ccc(OC)c(OC)c2)cc1 (configuration not stated) | 310
Fc1ccc2nc(-c3ccc(-c4ccc(CNCCN5CCNCC5)cc4)cc3)[nH]c2c1 | 850
O=C(c1ccccc1F)N(Cc1ccc(Cl)cc1)c1ccccn1 | 1020
CN1CCC(NCc2ccc(-c3ccc(C(F)(F)F)cc3)cc2)CC1 | 800
NC(N)=NN=CC(=O)Nc1cccc(C(F)(F)F)c1 | 1000
COc1ccc(NC(=O)[C@H](CC(C)C)Nc2cc(C)nc(NCCc3ccc(F)cc3)n2)cc1 | 920
COc1cc(NC(=O)/C=C/c2cc(F)cc(F)c2F)cc(OCCN2CCC(O)(c3ccccc3)CC2)c1 | 170
CCC(=O)Nc1cc(=O)[nH]c2nc(-c3ccc(Cl)cc3)nn12 | 570
COc1ccc(-n2c(=O)c3c(n4c(SC(C)C)nnc24)-c2ccccc2CC32CCCCC2)cc1 | 500
Nc1c(Cl)cc(C(O)CNCCCCCOCCCc2ccc3ncccc3c2)cc1Cl (configuration not stated) | 980
COC(=O)c1ccc2nc(-c3ccc(/C=C/C(=O)NCc4ccc(Cl)c(Cl)c4)cc3)[nH]c2c1 | 1340
Cc1cccc2[nH]c(-c3ccc(-c4cccc(CNC5CCN(C)CC5)c4)s3)nc12 | 180
O=C(/C=C/c1ccc(Cl)c(Cl)c1)N1CCC(NCc2ccc3[nH]ccc3c2)CC1 | 1020
CC(=O)Nc1ncc(C(=O)Nc2cccc(-c3ccc(-c4nc5c(C)cccc5[nH]4)cc3)c2)s1 | 640
CCCC(=O)Nc1ccc(OCCCCN(Cc2ccccc2C(F)(F)F)c2ccc(C(F)(F)F)c(C#N)c2)cc1 | 970
CCOC(=O)C(CO)NC(=O)c1ccc([N+](=O)[O-])o1 (configuration not stated) | 290
O=C(N[C@@H](CC1CCCCC1)C(=O)NC1CCCc2ccccc21)c1ccc(O)c(-c2cccc(C(F)(F)F)c2)c1 (some centres not stated) | 600
N#Cc1ccc(-c2ccc(C(=O)NCCCCN3CCC(c4cc(Br)c5c(c4OCC(N)=O)CCCC5)CC3)cc2)cc1 | 800
CC[C@H]1CN2CC[C@H]1C[C@@H]2[C@@H](O)c1cc(Cl)nc2ccc(OC)cc12 | 60
Cn1c(=O)c(-c2c(Cl)cccc2Cl)cc2cnc(Nc3ccc(N4CCOCC4)cc3)nc21 | 160

Structure (SMILES) | IC50 [nM]
CC(=O)Nc1ccc(OCCN(Cc2ccccc2OC(F)(F)F)c2ccc(C(F)(F)F)c(C#N)c2)c(Cl)c1 | 460
CN(Cc1cccc(F)c1)C1CCN(c2cc(NC(=O)c3ccc(F)cc3)ccn2)CC1 | 1160
COc1ccc(C2CCN(CCCCNC(=O)c3ccc(NC(=O)c4ccc(Cl)cc4)cc3)C2)c(OC)c1 (configuration not stated) | 1200
CCc1c(C(=O)NC2CCC(N3CCC(c4ccccc4C)CC3)CC2)[nH]c2ccc(OC)cc12 (configuration not stated) | 810
COc1cccc2[nH]c(NCCCNCc3cc(Br)cc(Br)c3)nc12 | 950
CN1CCC(C(=O)Nc2ccc(-c3cccc(-c4nc5ccc(C(F)(F)F)cc5[nH]4)c3)cc2)CC1 | 580
COc1c(C2CCN(CCCCNC(=O)c3ccc(-c4ccc(Cl)cc4)c(O)c3)CC2)ccc2c1CCCC2 | 230
CN1CCN(CCCN(Cc2cccc(-c3ccc(CNCCc4ccccc4)cc3)c2)C(=O)Nc2ccccc2)CC1 | 830
CCOc1cc(OCC)c2ccccc2c1CNCCCCCCNCc1c(OCC)cc(OCC)c2ccccc12 | 310
OCCN1CCN(Cc2ccc(-c3ccc(-c4nc5ccc(F)cc5[nH]4)cc3)cc2)CC1 | 570
O=C(NC1CCN(Cc2ccsc2)CC1)c1ccc(-c2cccc(C(F)(F)F)c2)s1 | 1440
C=C[C@]1(C)C[C@@H](OC(=O)NC(=O)C2CCN(C(=O)CSc3ccccc3)CC2)[C@]2(C)[C@H](C)CC[C@]3(CCC(=O)[C@H]32)[C@@H](C)[C@@H]1O | 1010
COc1ccc(NC(=O)c2ccc(-c3ccc(-c4cccnc4)cc3)c(C)c2)cc1OCCN(C)C | 200
NC1CCCN(Cc2cccc(-c3ccc(-c4nc5ccccc5[nH]4)cc3)c2)C1 (configuration not stated) | 720
O=C(C=Cc1ccc(Cl)c(Cl)c1)NCCCCCN1CCC(CCCNC(=O)/C=C/c2ccccc2)CC1 | 590
CN1CCN(CCCN(Cc2cccc(-c3ccc(CNC4CCCC4)cc3)c2)C(=O)/C=C/c2ccccc2)CC1 | 750
NC1=NC(c2ccccc2)(c2ccccc2)C(=O)N1C1CCCCC1 | 660
Cc1ccc(O)cc1Nc1ccnc2ccc(-c3cccc(CN(C)C)c3)cc12 | 510
O=S(=O)(c1ccccc1)C1CC1 | 720
CC(=O)Nc1ccc(C(=O)Nc2cccc(-c3cccc(-c4nc5ccccc5[nH]4)c3)c2)cn1 | 200
CC(C)CNCc1cccc(-c2cccc(CN(CCCN3CCN(C)CC3)C(=O)/C=C/c3ccccc3)c2)c1 | 930
CC1CN=C(c2ccc(NC(=O)c3ccc(C(=O)Nc4ccc(C5=NCC(C)N5)cc4)cc3)cc2)N1 (configuration not stated) | 30
N#CN1CC[C@H](CS(=O)(=O)c2cccc(Br)c2)C1 | 870
